Source: patent publication US4000262A, “5-Epi-amino and 5-epi-azido-4,6-di-O-(aminoglycosyl)-2,5-dideoxystreptamines 1-N-alkyl-5-epi-amino and 1-N-alkyl-5-epi-azido-4,6-di-O-(aminoglycosyl)-2,5-dideoxystreptamines” (priority 1975, dated 1976)
Converted amounts (≈) assume the structure as drawn. Read-outs that look alike come from different tables or passages of the source. One block for each molecule: values may come before it.

Assays:
[1] = test system: gram positive bacteria and gram negative bacteria; experiment: antibacterial activity (general statements, standard dilution tests); type: cell-based; settings: gram negative organisms resistant to the 5-hydroxy precursors
Streptococcus pyogenes C = experiment: in vitro minimal inhibitory concentration, standard tube dilution method; type: cell-based
Description: In Table 1, set forth below is shown the in vitro minimal inhibitory concentration (MIC) of gentamicin C2a against representative gram-positive and gram-negative bacteria. The results are derived using the standard tube dilution method in Mueller-Hinton broth.
In Table 2, set forth below is shown the in vitro minimal inhibitory concentration (MIC) of gentamicin C2b against representative gram-positive and gram-negative bacteria. The results are derived using the standard tube dilution method in Mueller-Hinton broth.

[2] = acute intravenous toxicity; settings: mouse, in vivo, male CF-1 mice weighing 20 grams each
[3] = test system: gram-positive and gram-negative bacteria; experiment: in vitro antibacterial spectrum / activity compared with gentamicin C components; type: cell-based; settings: as the free base

Structure (SMILES): CNC1C(O)C(OC2C(N)CC(N)C(OC3OC(CN)CCC3N)C2N)OCC1(C)O (stereo not drawn) [5-epi-amino-5-deoxygentamicin C1a]
cidal activity [1]: cidal against certain gram negative organisms which are resistant to the 5-hydroxy precursors

Structure (SMILES): CN[C@@H]1[C@@H](O)[C@@H](O[C@@H]2[C@@H](O)[C@H](O[C@H]3O[C@H]([C@H](C)N)CC[C@H]3N)[C@@H](N)C[C@H]2N)OC[C@]1(C)O [gentamicin C2a]
MIC (Streptococcus pyogenes C): 7.5 µg/mL (≈ 16.2 µM)
LD50 [2]: 110 mg/kg
activity relative to the gentamicin "C" complex [3]: about 74%

MIC (Streptococcus pyogenes C; Mueller-Hinton broth, read-out: MIC): 3 µg/mL (≈ 6.47 µM)
Structure (SMILES): CNC[C@@H]1CC[C@@H](N)[C@@H](O[C@H]2[C@H](O)[C@@H](O[C@H]3OC[C@](C)(O)[C@H](NC)[C@H]3O)[C@H](N)C[C@@H]2N)O1 [gentamicin C2b]
